Measured values reported in patent publication US4977275A, “Pyrrole derivatives” (SS Pharmaceutical Co., Ltd., priority 1988, dated 1990).
Converted amounts (≈) assume the structure as drawn.

Legend:
Assay type in all cases: cell-based
[1] = system: Piricularia oryzae IAM 5016; assay: microbe, parasite or virus in culture; conditions: read-out: Minimum inhibitory concentration (MIC)
[2] = system: Helminthosporium sesamum IAM 5012; assay: antimicrobial activity, minimum inhibitory concentration; conditions: IAM5012
[3] = system: Staphylococcus aureus FDA 209P; assay: as above; conditions: FDA209P
[4] = system: Candida albicans NHL 4019; assay: as above; conditions: NHL4019
Candida albicans Yu-1200 = assay: as above; conditions: YU1200
[5] = system: Saccharomyces cerevisiae ATCC 9763; assay: as above; conditions: ATCC9763
[6] = system: Bacillus subtilis ATCC 6633; assay: as above; conditions: ATCC6633
[7] = system: Debaryomyces kloeckeri IFO 0015; assay: as above; conditions: IFO0015

| SMILES | MIC [1] [µg/mL] | MIC [2] [µg/mL] | MIC [3] [µg/mL] | MIC [4] [µg/mL] | MIC (Candida albicans Yu-1200) [µg/mL] | MIC [5] [µg/mL] | MIC [6] [µg/mL] | MIC [7] [µg/mL] |
| --- | --- | --- | --- | --- | --- | --- | --- | --- |
| CCCCCCC(=O)Oc1ccc(F)cc1C(=O)c1[nH]c(Br)c(Br)c1Br [Compound 2, 2-(2-Heptanoyloxy-5-fluorobenzoyl)-3,4,5-tribromopyrrole] | < 0.2 | 6.25 (≈ 11.3 µM) | < 0.2 | 12.5 (≈ 22.6 µM) | 12.5 (≈ 22.6 µM) | 12.5 (≈ 22.6 µM) | < 0.2 | 12.5 (≈ 22.6 µM) |
| CCCCCCC(=O)Oc1ccccc1C(=O)c1[nH]c(Cl)c(Cl)c1I [Compound 6, 2-(2-heptanoyloxybenzoyl)-3-iodo-4,5-dichloropyrrole] | < 0.2 | 6.25 (≈ 12.6 µM) | 0.39 (≈ 0.789 µM) | 12.5 (≈ 25.3 µM) | 12.5 (≈ 25.3 µM) | 12.5 (≈ 25.3 µM) | 0.39 (≈ 0.789 µM) | 12.5 (≈ 25.3 µM) |
| O=C(CCCl)Oc1ccccc1C(=O)c1[nH]c(Cl)c(Cl)c1I [Compound 9, 2-[2-(3-Chloropropionyloxy)benzoyl]-3-iodo-4,5-dichloropyrrole] | < 0.2 | 6.25 (≈ 13.2 µM) | < 0.2 | 6.25 (≈ 13.2 µM) | 6.25 (≈ 13.2 µM) | 12.5 (≈ 26.5 µM) | < 0.2 | 12.5 (≈ 26.5 µM) |
